Results: patent US9925153B2, “Therapeutic agents for skin diseases and conditions” (STC.UNM, priority 2013, dated 2018)
Entries after “also recorded” stand apart in the source; their conditions may differ. Read-outs that look alike come from different tables or passages of the source. One block for each compound: values may come before it.

What was measured:
[1] = test system: NF-κB; assay: Inhibition of TNFα-induced activation of NF-κB, 293T/NF-κB-luc luciferase reporter cells; assay type: cell-based, human; conditions: for Activity as inhibitor of TNFα-induced activation of NF-κB in the screen, in words: screened at 15 μM, compared to resveratrol; for IC50: Homo sapiens, HEK-293T
Experimental: The cells were maintained in Dulbecco's Modified Eagle's Medium (DMEM—high glucose containing 4 mM glutamine) supplemented with 10% fetal bovine serum (FBS), 1 mM sodium pyruvate, 100 units/ml penicillin, 100 μg/ml streptomycin and 100 μg/ml hygromycin (Gibco/Invitrogen, Carlsbad, Calif.) to maintain cell selection. […] The following day cells were fed fresh media 1 hour prior to treatment. […] Plate wells were gently washed with phosphate buffered saline, pH 7.4, and lysed with 1× passive lysis buffer (Promega, Madison, Wis.). The subsequent lysates were analyzed with the Luciferase Assay System (Promega) utilizing a TD-20/20 luminometer (Turner Designs, Sunnyvale, Calif.). The firefly luciferase relative light units were normalized to protein (mg/ml) with BCA™ Protein Assay Kit (Pierce, Rockford, Ill.) and standardized to percent of control (TNFα control).

[2] = TRAP anti-oxidant assay (quenching of ABTS radical cation)
From the text: (§1) The total radical-trapping anti-oxidant parameter assay (TRAP assay) measures the ability of an analog to react with the pre-formed radical monocation of 2,2′-azinobis-(3-ethylbenzothiazoline-6-sulfonic acid) (ABTS.^+). The ferric reducing/anti-oxidant power assay (FRAP assay) measures the ability of an analog to reduce a ferric tripyridyltriazine complex.
(§2) In both colorimetric assays, the vitamin E analog Trolox was used as a control.
(§3) The anti-oxidant activities of certain stilbene analogs according to the present invention were determined using two standard assays. See, Schlesier, et al., Free Rad Res. 2002; 36:177-187. The total radical-trapping anti-oxidant parameter assay (TRAP assay) measures the ability of an analog to react with the pre-formed radical monocation of 2,2′-azinobis-(3-ethylbenzothiazoline-6-sulfonic acid) (ABTS.^+). See, Re, et al., Free Rad Biol Med, 26:1231-1237 (1999). […] The activities of curcumin and analogs were determined by their abilities to quench the color of the radical cation. […] The ferric complex of 2,4,6-tripyridyl-s-triazine was prepared at acidic pH, and the anti-oxidant activities of curcumin and analogs were determined by their abilities to reduce the ferric complex to the ferrous complex, monitored by formation of the ferrous complex at 593 nm. […]

[3] = FRAP anti-oxidant assay (reduction of ferric tripyridyltriazine complex)
From the text: as §1, §2, §3

[4] = test system: COX-2 mRNA; assay: Inhibition of LPS-induced COX-2 mRNA expression in BV-2 microglial cells (qRT-PCR); assay type: cell-based, mouse; conditions: BV-2 cells, LPS 0.2 μg/ml, 24 hours; for Inhibition of LPS-induced COX-2 mRNA, in words: 0.15 μM
[5] = test system: AP-1; assay: Inhibition of TPA-induced activation of AP-1, 293T/AP-1-luc luciferase reporter cells; assay type: cell-based, human; conditions: for IC50: Homo sapiens
Experimental: An AP-1 reporter stable cell line derived from human 293T embryonic kidney cells transfected with a luciferase reporter construct containing three AP-1 binding sites in the promoter (293T/AP-1-luc, Panomics, Inc., Redwood City, Calif.) was grown in a humidified atmosphere at 37° C. in 5% CO2/95% air. The cells were maintained in Dulbecco's Modified Eagle's Medium (DMEM—high glucose containing 4 mM glutamine) supplemented with 10% fetal bovine serum (FBS), 1 mM sodium pyruvate, 100 units/ml penicillin, 100 μg/ml streptomycin and 100 μg/ml hygromycin (Gibco/Invitrogen, Carlsbad, Calif.) to maintain cell selection. One day prior to treatment, the 293T/AP-1-luc cells were plated into 24-well cell culture plates (Costar, Cambridge, Mass.) in the above media without hygromycin. The following day, the cells, which were at approximately 60% confluency, were fed fresh media with or without TPA, 10 ng/ml, (Calbiochem) and immediately treated with curcumin or analog prepared in DMSO stock solutions. The cells were placed again in a humidified atmosphere at 37° C. in 5% CO2/95% air for 24 hours. Plate wells were gently washed with phosphate buffered saline, pH 7.4, and lysed with Ix passive lysis buffer (Promega, Madison, Wis.). The subsequent lysates were analyzed with the Luciferase Assay System (Promega) utilizing a TD-20/20 luminometer (Turner Designs, Sunnyvale, Calif.). The firefly luciferase relative light units were normalized to protein (mg/ml) with BCA Protein Assay Kit (Pierce, Rockford, Ill.) and standardized to percent of control (TPA control).

[6] = Treatment of dogs with inflammatory skin conditions with LD55; assay type: in vivo, dog
From the text: (§4) Table 3 summarizes the results from consecutive treatment with LD55 of dogs and cats with inflammatory skin conditions, where LD55 was applied as a 1% lotion.

[7] = Treatment of cats with inflammatory skin conditions with LD55; assay type: in vivo, cat; conditions: for outcome: Feline
From the text: as §4

[8] = transgenic model of Alzheimer's disease (ref. 10); cited from earlier work
[9] = test system: NF-κB; conditions: literature (ref. 35); cited from earlier work
[10] = 7 h, 293T/NF-κB-luc cells, TNFα 20 ng/ml, 7 hours, triplicate, read-out: IC50 for inhibition of the TNFα-induced activation of NFκB

SMILES: COc1ccc(/C=C/c2ccccc2)cc1 [4b, (E)-4-Methoxystilbene]
Activity as inhibitor of TNFα-induced activation of NF-κB in the screen, in words [1]: especially active

IC50 [1, 10]: 150 nM
SMILES: CN(C)c1ccc(/C=C/c2ccccc2)cc1 [4cc, (E)-4-N,N-Dimethylaminostilbene]
Anti-oxidant activity in the TRAP assay, in words [2]: retained anti-oxidant activity; also recorded: exhibits anti-oxidant activity | Anti-oxidant activity in the FRAP assay, in words [3]: retained anti-oxidant activity; also recorded: exhibits anti-oxidant activity | Inhibition of LPS-induced COX-2 mRNA, in words [4]: almost as effective as 4 μM resveratrol

SMILES: COc1cccc(/C=C/c2ccccc2)c1OC [4o, (E)-2,3-Dimethoxystilbene]
Activity as inhibitor of TNFα-induced activation of NF-κB in the screen, in words [1]: retained very little activity

SMILES: COc1ccc(/C=C/c2ccccc2)cc1O [4s, (E)-3-Hydroxy-4-methoxystilbene]
Activity as inhibitor of TNFα-induced activation of NF-κB in the screen, in words [1]: considerably more active than resveratrol

SMILES: COc1ccc(/C=C/c2ccccc2)c(OC)c1 [4u, (E)-2,4-Dimethoxystilbene]
Activity as inhibitor of TNFα-induced activation of NF-κB in the screen, in words [1]: especially active

SMILES: COc1ccc(/C=C/c2ccc(OC)cc2)cc1 [6b, (E)-4,4′-Dimethoxystilbene]
Activity as inhibitor of TNFα-induced activation of NF-κB in the screen, in words [1]: retained very little activity

IC50 [1, 10]: 900 ± 100 nM
SMILES: COc1ccc(/C=C/c2ccc(C)cc2)cc1 [6d, (E)-4′-Methoxy-4-methylstilbene]

SMILES: COc1ccc(/C=C/c2cc(OC)cc(OC)c2)cc1 [6f, (E)-3,4′,5-Trimethoxystilbene]
Activity as inhibitor of TNFα-induced activation of NF-κB in the screen, in words [1]: especially active | IC50 ([5]; 24 h, read-out: IC50 for inhibition of the TPA-induced activation of AP-1): 3.8 ± 1.1 µM

IC50 [1, 10]: 1000 ± 100 nM
SMILES: COc1ccc(/C=C/c2cccc(Cl)c2)cc1 [6h, (E)-3-Chloro-4′-methoxystilbene]

IC50 [1, 10]: 800 ± 200 nM
SMILES: COc1ccc(/C=C/c2cccc(C)c2)cc1 [6i, (E)-4′-Methoxy-3-methylstilbene]

IC50 [1, 10]: 1500 ± 30 nM
SMILES: COc1ccc(/C=C/c2ccccc2Cl)cc1 [6j, (E)-2-Chloro-4′-methoxystilbene]

SMILES: COc1ccc(/C=C/c2cccc(OC)c2OC)cc1 [6o, (E)-2,3,4′-Trimethoxystilbene]
Activity as inhibitor of TNFα-induced activation of NF-κB in the screen, in words [1]: especially active

SMILES: COc1ccc(/C=C/c2ccccc2F)cc1 [6p, (E)-2-Fluoro-4′-methoxystilbene]
IC50 [1, 10]: 150 nM | Anti-oxidant activity in the TRAP assay, in words [2]: does not exhibit anti-oxidant activity | Anti-oxidant activity in the FRAP assay, in words [3]: does not exhibit anti-oxidant activity | Inhibition of LPS-induced COX-2 mRNA, in words [4]: almost as effective as 4 μM resveratrol | outcome ([6]; K9, Pempigus, 1% lotion): positive | outcome ([6]; K9, atopy, 1% lotion): positive | outcome ([6]; K9, hemangiosarcoma, 1% lotion): positive | outcome ([6]; K9, hot spot, 1% lotion): positive | outcome ([6]; K9, peri-analfistual, 1% lotion): positive | Nasal planum lesion after treatment ([6]; animal 1139, daily application, after 10 applications): the region was healing, the dried, flaking skin was gone and there was no bleeding | Peri-anal fistula healing ([6]; animal 3688, LD55 with combinations of standard forms of treatment, two weeks): nearly resulted in the fistula healing and closing | Inflammatory component of pathology (redness/itching, discomfort) ([6]; dogs, 1% lotion, all treated animals except two dogs with unknown outcome): marked improvement | outcome ([7]; atopy/ears, 1% lotion): positive | outcome ([7]; squamous cell carcinoma, 1% lotion): positive | Time for redness to disappear ([7]; animal 255, severe allergies, ears and face, applied twice a day): ≤ 24 h | Inflammatory component of pathology (redness/itching, discomfort) ([7]; cats, 1% lotion): marked improvement | Ability to prevent brain inflammation and plaque accumulation [8]: effective

IC50 [1, 10]: 600 ± 100 nM
SMILES: COc1ccc(/C=C/c2cccc(OC)c2)cc1 [6r, (E)-3,4′-Dimethoxystilbene]
Activity as inhibitor of TNFα-induced activation of NF-κB in the screen, in words [1]: especially active; also recorded: highly active

IC50 [1, 10]: 600 ± 400 nM
SMILES: COc1ccc(/C=C/c2ccc(O)c(O)c2)cc1 [6x, (E)-3,4-Dihydroxy-4′-methoxystilbene]
Activity as inhibitor of TNFα-induced activation of NF-κB in the screen, in words [1]: considerably more active than resveratrol

IC50 ([1]; TNFα-induced activation of NF-κB, Panomics reporter screening cells, read-out: NFκB IC50 (Tables 1A and 2A)): 3900 ± 300 nM | IC50 ([5]; AP1, TPA-induced activation of AP-1, Panomics reporter screening cells, read-out: AP-1 IC50 (Tables 1A and 2A)): 8.2 ± 0.3 µM
SMILES: O=C(/C=C/c1ccncc1)/C=C/c1ccncc1 [reference compound]

SMILES: Oc1ccc(/C=C/c2cc(O)cc(O)c2)cc1 [resveratrol, 3,4′,5-trihydroxystilbene, reference compound]
IC50 [1, 10]: 20000 ± 3000 nM | Inhibition of LPS-induced COX-2 mRNA ([4]; 4 μM): about 50% | Suppression of LPS-induced COX-2 mRNA ([4]; 20 μM): markedly suppressed | Effect on TPA-induced AP-1 activation, in words ([5]; 293T/AP-1-luc cells, TPA 10 ng/ml, 24 hours): activated

SMILES: C(=Cc1ccccc1)c1ccccc1 [stilbene]
Inhibition of TNF-induced activation of NF-κB [9]: inactive
